Source: patent publication US12617795B2, “Substituted 6,7-dihydro-5H-pyrrolo[3,4-d]pyrimidines, 5,7-dihydrofuro[3,4-d]pyrimidines, and pyrido[2,3-d]pyrimidines as KCC2 modulators” (Astrazeneca AB, priority 2020, dated 2026)

Biological target: T1, KCC2 (Homo sapiens, UniProt Q9H2X9)
T1 construct: expressed in transfected cells; host or cells: HEK293 cells electroporated (Maxcyte STX) with the pcDNA3.1 KCC2 plasmid
T1 sequence (Q9H2X9 1-1139): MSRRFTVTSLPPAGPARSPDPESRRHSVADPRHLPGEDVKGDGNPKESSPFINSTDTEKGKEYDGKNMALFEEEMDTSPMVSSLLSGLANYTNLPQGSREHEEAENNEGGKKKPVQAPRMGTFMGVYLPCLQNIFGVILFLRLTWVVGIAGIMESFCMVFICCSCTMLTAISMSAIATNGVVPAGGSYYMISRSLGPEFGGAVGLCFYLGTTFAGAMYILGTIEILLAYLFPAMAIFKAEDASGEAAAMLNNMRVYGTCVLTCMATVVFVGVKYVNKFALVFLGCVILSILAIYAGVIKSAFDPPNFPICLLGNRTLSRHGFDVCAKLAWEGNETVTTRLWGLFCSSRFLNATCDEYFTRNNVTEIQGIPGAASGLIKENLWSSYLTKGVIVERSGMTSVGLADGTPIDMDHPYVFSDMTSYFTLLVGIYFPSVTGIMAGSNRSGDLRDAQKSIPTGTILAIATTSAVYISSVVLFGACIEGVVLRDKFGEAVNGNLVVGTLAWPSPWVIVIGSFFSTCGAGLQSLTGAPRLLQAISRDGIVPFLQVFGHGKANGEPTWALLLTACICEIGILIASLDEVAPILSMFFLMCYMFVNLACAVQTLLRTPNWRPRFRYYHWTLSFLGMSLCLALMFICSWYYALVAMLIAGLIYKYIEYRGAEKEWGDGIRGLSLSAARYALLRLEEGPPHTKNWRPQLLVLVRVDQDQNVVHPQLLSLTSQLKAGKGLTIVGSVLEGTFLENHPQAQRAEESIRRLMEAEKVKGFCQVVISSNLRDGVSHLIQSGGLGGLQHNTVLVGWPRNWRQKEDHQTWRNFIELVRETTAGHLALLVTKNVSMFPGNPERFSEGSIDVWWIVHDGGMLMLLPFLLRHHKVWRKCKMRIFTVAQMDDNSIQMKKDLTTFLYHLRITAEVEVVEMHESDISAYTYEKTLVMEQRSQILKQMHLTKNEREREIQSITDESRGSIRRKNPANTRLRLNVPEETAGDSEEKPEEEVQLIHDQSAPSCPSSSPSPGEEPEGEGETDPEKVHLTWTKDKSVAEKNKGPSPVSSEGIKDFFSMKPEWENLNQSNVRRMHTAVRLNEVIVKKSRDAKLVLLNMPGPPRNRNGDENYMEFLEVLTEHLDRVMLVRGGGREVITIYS
Experiment: KCC2 thallium transport FLIPR-based assay (Tl+ influx in HEK293 cells expressing KCC2)
Type: cell-based
Settings: 90 min compound incubation at RT, thallium flux at 120 s used to determine EC50
Summary of the method: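 Transient electroporation of codon-optimised human KCC2 into HEK293 cells, plated and cultured 48 h before dye loading (1 h, RT). Compounds run as a 12-point 1:2 series from 100 μM top, 90 min RT in buffer containing bumetanide; Tl+ flux read by FLIPR after stimulus addition, 1 s intervals over 120 s, with the 120 s signal used for EC50.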

Question: For CC(C)N1Cc2c(Nc3ccc(C4CCCCC4)cc3)nc(N3CCO[C@H](C)C3)nc2C1=O [Example 13, 4-[(4-cyclohexylphenyl)amino]-2-[(2R)-2-methylmorpholin-4-yl]-6-(propan-2-yl)-5,6-dihydro-7H-pyrrolo[3,4-d]pyrimidin-7-one], which EC50 is on record?
Answer: 1.71 µM

Question: How did the EC50 turn out when CC(C)N1Cc2c(Nc3ccc(C4CCCCC4)cc3)nc(N3CCOC(C4CC4)C3)nc2C1=O (single isomer, unassigned) [Example 15, 4-[(4-cyclohexylphenyl)amino]-2-(2-cyclopropylmorpholin-4-yl)-6-(propan-2-yl)-5,6-dihydro-7H-pyrrolo[3,4-d]pyrimidin-7-one] was run?
Answer: 0.769 µM

Question: C[C@@H]1CN(c2nc(Nc3ccc(C4CCCCC4)cc3)c3cc(C(N)=O)cnc3n2)CCO1 [Example 104, (R)-4-((4-cyclohexylphenyl)amino)-2-(2-methylmorpholino)pyrido[2,3-d]pyrimidine-6-carboxamide] was tested. Which EC50 did it give?
Answer: 1.63 µM

Question: Which EC50 does the source give for CC(C)N1Cc2c(Nc3ccc(C(F)(F)C(F)(F)F)cc3)nc(N3CCOC(C4CC4)C3)nc2C1=O (centres unmarked) [Example 58, 2-(2-cyclopropylmorpholin-4-yl)-4-{[4-(pentafluoroethyl)phenyl]amino}-6-(propan-2-yl)-5,6-dihydro-7H-pyrrolo[3,4-d]pyrimidin-7-one] here?
Answer: 3.78 µM

Question: How did the EC50 turn out when CC(C)N1Cc2c(Nc3ccc(C(F)(F)C(F)(F)F)cc3)nc(N3CCOCC3)nc2C1=O [Example 83, 2-(morpholin-4-yl)-4-{[4-(pentafluoroethyl)phenyl]amino}-6-(propan-2-yl)-5,6-dihydro-7H-pyrrolo[3,4-d]pyrimidin-7-one] was run?
Answer: 3.88 µM

Question: How did the EC50 turn out when CC(C)c1ccc(Nc2nc(N3C[C@@H](C)O[C@@H](C)C3)nc3c2CN(C(C)C)C3=O)cc1 [Example 4, 2-[(2R,6S)-2,6-dimethylmorpholin-4-yl]-6-(propan-2-yl)-4-{[4-(propan-2-yl)phenyl]amino}-5,6-dihydro-7H-pyrrolo[3,4-d]pyrimidin-7-one] was run?
Answer: 3.76 µM

Question: CC(C)N1Cc2c(Nc3ccc(C4CCCCC4)cc3)nc(-c3cncs3)nc2C1=O [Example 49, 4-[(4-cyclohexylphenyl)amino]-6-(propan-2-yl)-2-(1,3-thiazol-5-yl)-5,6-dihydro-7H-pyrrolo[3,4-d]pyrimidin-7-one] was tested. Which EC50 did it give?
Answer: 6.3 µM

Question: CC(C)c1ccc(Nc2nc(N3CCOC(C4CC4)C3)nc3c2CN(C(C)C)C3=O)cc1 (centres unmarked) [Example 10, 2-(2-cyclopropylmorpholin-4-yl)-6-(propan-2-yl)-4-{[4-(propan-2-yl)phenyl]amino}-5,6-dihydro-7H-pyrrolo[3,4-d]pyrimidin-7-one] was tested. Which EC50 did it give?
Answer: 2.99 µM

Question: Which EC50 does the source give for CCCCCCCOc1ccc(-c2ccc(Nc3nc(N4CCOC(C5CC5)C4)nc4c3COC4)cc2)cc1 (centres unmarked) [Example 93] here?
Answer: 1.41 µM

Question: With CCN1Cc2c(Nc3ccc(C(C)C)cc3)nc(N3CCO[C@H](C)C3)nc2C1=O [Example 67, 6-ethyl-2-[(2R)-2-methylmorpholin-4-yl]-4-{[4-(propan-2-yl)phenyl]amino}-5,6-dihydro-7H-pyrrolo[3,4-d]pyrimidin-7-one] as the compound, how does the EC50 read?
Answer: 4.07 µM

Question: With C#CCCC1(CCOc2ccc(-c3ccc(Nc4nc(C5=CCOCC5)nc5c4CN(C(C)C)C5=O)cc3)cc2)N=N1 [Example 81, 4-((4′-(2-(3-(but-3-yn-1-yl)-3H-diazirin-3-yl)ethoxy)-[1,1′-biphenyl]-4-yl)amino)-2-(3,6-dihydro-2H-pyran-4-yl)-6-isopropyl-5,6-dihydro-7H-pyrrolo[3,4-d]pyrimidin-7-one] as the compound, how does the EC50 read?
Answer: 2.47 µM

Question: Which EC50 does the source give for CC(C)N1Cc2c(Nc3ccc(C4CCC4)cc3)nc(N3CCOCC3)nc2C1=O [Example 63, 4-[(4-cyclobutylphenyl)amino]-2-(morpholin-4-yl)-6-(propan-2-yl)-5,6-dihydro-7H-pyrrolo[3,4-d]pyrimidin-7-one] here?
Answer: 5.71 µM

Question: How did the EC50 turn out when CC(C)N1Cc2c(Nc3ccc(C4CCCCC4)cc3)nc(N3CCCOCC3)nc2C1=O [Example 24, 4-[(4-cyclohexylphenyl)amino]-2-(1,4-oxazepan-4-yl)-6-(propan-2-yl)-5,6-dihydro-7H-pyrrolo[3,4-d]pyrimidin-7-one] was run?
Answer: 2.92 µM

Question: For CC(C)N1Cc2c(Nc3ccc(Oc4ccc(F)cc4)cc3)nc(N3CCO[C@H](C)C3)nc2C1=O [Example 51, (R)-4-((4-(4-fluorophenoxy)phenyl)amino)-6-isopropyl-2-(2-methylmorpholino)-5,6-dihydro-7H-pyrrolo[3,4-d]pyrimidin-7-one], which EC50 is on record?
Answer: 0.973 µM
